Experimental data reported in US12642773B2, “Coated drug compositions and methods of preparing the same” (Applied Materials, Inc., priority 2020, dated 2026).
In brackets after ≈: the same amount, converted by molar mass.

Test: Solubility of ezetimibe
Type: physicochemical
Text: Crystallization decreases the solubility of ezetimibe. […] In contrast, the release rate from coated 50% drug loading ASD particles barely changed.

Which solubility does the source give for `O=C1[C@H](CC[C@H](O)c2ccc(F)cc2)[C@@H](c2ccc(O)cc2)N1c1ccc(F)cc1` [amorphous ezetimibe, ezetimibe] here?
Its solubility is 20.2 ± 0.4 µg/mL (≈ 49.3 µM).

Which solubility does the source give for `O=C1[C@H](CC[C@H](O)c2ccc(F)cc2)[C@@H](c2ccc(O)cc2)N1c1ccc(F)cc1` [crystalline ezetimibe, ezetimibe] here?
Its solubility is 0.8 ± 0.3 µg/mL (≈ 1.95 µM).
